Reference: US20230312752A1 (Brown University, priority 2021, published 2023)

Columns and labels:
Format in all cases: cell-based, SARS-CoV-2
[1] = system: pseudovirus with S protein D614G, E484K, UK, SA, BZ variants
[2] = system: pseudovirus with Delta S protein mutations
[3] = system: pseudoviruses with omicron S protein mutations
[4] = system: pseudovirus with alpha, beta or gamma S protein mutations

Row | Molecule | cellular integration of Spike proteins [1] | uptake of pseudovirus [2] | uptake of pseudoviruses [3] | CHI3L1-stimulated pseudovirus uptake [2] | pseudovirus uptake when exogenous CHI3L1 was not administered [2] | epithelial cell uptake of pseudoviruses [3] | rCHI3L1 stimulatory effects on pseudovirus uptake [4] | uptake of pseudovirus in cells treated with and without rCHI3L1 [4] | uptake of pseudoviruses in cells treated with and without rCHI3L1 [4]
1 | rhCHI3L1: recombinant human CHI3L1 (chitinase 3 like 1) protein, from R&D Inc. or generated at Brown University | stimulated | potent stimulator | potent stimulator |  |  |  |  |  | 
2 | C[C@H]1O[C@H](O[C@H]2[C@H](O)[C@@H](O)[C@@H](O)[C@H](O)[C@@H]2O)[C@@H](N)C[C@@H]1NC(=N)C(=O)O [Kasugamycin, 2-amino-2-[(2R,3S,5S,6R)-5-amino-2-methyl-6-[(2R,3S,5S,6S)-2,3,4,5,6-pentahydroxycyclohexyl]oxyoxan-3-yl]iminoacetic acid] |  |  |  | abrogated | diminished | inhibited | markedly decreased | markedly diminished | 
3 | FRG: murine monoclonal anti-CHI3L1 antibody raised against amino acid 223-234 of human CHI3L1; heavy chain SEQ ID NO: 13, light chain SEQ ID NO: 14 (antibody, V domains shown) VH: QIQLVQSGPELKKPGETVKISCKASGYTFTNYGMNWVKQAPGKGLKWMGWINTYTGEPTYADDFKGRFAFSLETSASTAYLQINNLRNEDMSTYFCARLGYGKFYVMDYWGQGTSVTVSS VL: DVVMTQTPLSLPVSLGDQASISCRSSQSLVHSNGNTYLHWYLQKPGQSPKLLIYKVSNRFSGVPDRFSGSGSGTDFTLKISRVEAEDLGVYFCSQSTHVTWTFGGGTKLEIK |  |  |  | abrogated | diminished | inhibited |  | markedly diminished | markedly diminished
